Assay [1] deals with GST-DCAF10. In words: Streptavidin pull-down of GST-DCAF10 with biotinylated Nt-peptides. Format: binding, human. The conditions noted are these: for Binding to GST-DCAF10 (in words) / Nt-free reduction compared to Nt-Ac: 0.5 µM GST-DCAF10, 5 µM peptide, 1 h RT, WB; for Nt-free reduction compared to Nt-Ac: mean ± s.d., n = 3 independent binding assays. As for the experimental part:
To confirm direct interactions between peptides and DCAF10, we performed pull-down assays using bead-bound Nt-peptide variants incubated with purified full-length GST-DCAF10 or GST as a negative control (Fig. 2m–p and Supplementary Fig. 4a).
230 of 1:100), and desalted/concentrated on C18 reversed phase stage tips as previously
MS measurements settings are stated in MS measurements and raw file
BL21(DE3) cells (Thermo Fisher Scientific,
240 agar) plate containing 100 μg/mL ampicillin and 34 μg/mL chloramphenicol, then
Terrific broth (TB) medium (24 g/L yeast extract,
243 20 g/L tryptone, glycerol 4 mL/L, 100 mL/L phosphate buffer containing 0.17 M KH2PO4
244 and 0.72 M K2HPO4) was used to prepare a 1:100 dilution of the starter culture, and OD600
At OD600 = 1, protein induction was initiated by adding 1 mM
247 day, pellets were homogenized and lysed in glycerol lysis buffer (20 mM Tris-HCl pH
Lysis was performed on ice for 30 min, followed by
250 sonication (7 × 20 sec pulses with 20 sec breaks on ice) using a Bandelin sonoplus
Lysates were centrifuged at 4°C for 1 h
253 medium culture was lysed in 20 mL of supernatant (collected in 20 × 1 mL tubes). GST
255 agarose bead; Thermo Fisher Scientific, Waltham, MA, USA). For each 1 mL of
100 μL of GST magnetic beads
257 were washed twice with 500 μL of wash buffer (125 mM Tris-HCl pH 7.4, 150 mM NaCl,
The lysis supernatant was diluted 1:1 with
259 wash buffer, and incubated with the beads on an end-over-end rotator for 1 h at 25°C.
260 After incubation, the supernatant was removed, and the beads were washed twice with
Protein elution was then performed by incubating
263 pH 7.4, 250 mM NaCl, 0.3% Triton X-100) for 30 min at 25°C on an end-over-end rotator.
265 under the same conditions. Elution fractions were pooled and concentrated by
266 centrifugation (4°C, 25 min, 4500 rpm) using a 30 kDa cut-off concentrator (Merck
267 Millipore, #UFC803008, Darmstadt, Germany). Purified proteins were analyzed by
268 colloidal Coomassie stain, WB and MS.
270 Streptavidin pull-downs with GST-DCAF10 and biotinylated peptides
271 Streptavidin magnetic beads (DynabeadsTM MyOneTM Streptavidin T1; Thermo Fisher
272 Scientific, Waltham, MA, USA) were washed twice with 500 μL of wash buffer (125 mM
273 Tris-HCl pH 7.4, 150 mM NaCl, 0.1% Triton X-100). An excess of peptides was added
274 (to ensure full occupancy of the beads) and incubated for 30 min at RT. After peptide
275 binding, beads were again washed three times with 500 μL of wash buffer. The pull-down
276 was then performed in a 100 μL reaction volume with final concentrations of 0.5 µM
277 GST-DCAF10 and 5 µM peptide. GST-DCAF10 or GST alone (as a control) was added
278 to the peptide-streptavidin beads and incubated on a rotator for 1 h at RT. After incubation,
279 the beads were washed three times with 500 μL of wash buffer and resuspended in 4x
280 Laemmli buffer. 1/5 of the input (GST-DCAF10 and GST) and 9/10 of the sample were
281 loaded on a 10% SDS gel and blotted with anti-GST and anti-DCAF10 antibodies, while
282 1/10 was loaded on a 15% SDS gel and blotted with anti-streptavidin antibody to assess
283 equal peptide loading.
285 Streptavidin Sepharose High Performance, GE Healthcare, Chicago, IL, USA) were used.
286 After washing with a high salt wash buffer without detergents (125 mM Tris-HCl pH 7.4,
287 400 mM NaCl), an excess of peptides was added and incubated for 30 min at RT. For each
288 reaction, 10 µL of slurry beads were used. After peptide-binding, beads were again
289 washed once with a high salt wash buffer without detergents and twice with binding buffer
290 without detergents (125 mM Tris-HCl pH 7.4, 150 mM NaCl). The pull-downs were
291 performed in a 100 μL reaction volume in binding buffer without detergents with a final
292 concentration of 0.5 µM GST-DCAF10 and incubated rotating for 1 h at RT. After
293 incubation, the beads were washed five times with 500 μL of high salt wash buffer without […]

Assay [2] relates to DCAF10. In words: Peptide pull-down with quantitative MS, HeLa lysate, DCAF10. Format: binding, human (HeLa). The conditions noted are these: HeLa lysate; for DCAF10 binding (in words): Nt-Ac vs Nt-free peptides.
Method: Beads presenting 10-residue synthetic Nt-peptides of proteins of interest in their free (Nt-free) or modified (e.g., Nt-acetylated) versions were incubated with lysates from HeLa cells, followed by MS-based quantification of retained binders (Fig. 1a).
Biotinylated 10-mer Nt-peptides (Nt-free, Nt-acetylated, and, where indicated, Nt-myristoylated; sequences in Supplementary Table 1) were synthesized with a C-terminal Lys3 spacer and biotin, immobilized on magnetic streptavidin beads, and incubated with HeLa or mouse liver lysates. After standardized washes, bound proteins were on-bead reduced/alkylated, digested with LysC/trypsin, desalted, and analysed by LC-MS in DIA mode (Orbitrap Exploris 480) as described previously[24]. Variants included endogenous Nt-sequences, swap and mutant (Ala-Ala-Ala or Nt-amino acids) peptides, and pairwise comparisons of conditions of interest.
All MS experiments were performed as independent biological triplicates. Relative protein quantification was carried out using the label-free algorithm integrated in DIA-NN[53], and statistical testing was performed in Perseus using a two-sided Student’s t test with permutation-based multiple-testing-adjusted p-values[53],[54], as specified in the figure legends. […] Volcano blots were visualized with RStudio (version 2023.06.0). […] Cell experiments were performed as biological replicates, and binding assays as independent assays. […] Data are presented as mean ± s.d. Fold changes are reported as the ratio of the normalized value for the condition of interest to the normalized control value, with mean ± s.d. computed across biological replicates.
Assay [3] has as its system DLD-1 Lyn KO Flp-In T-REx cells. The assay can be described thus: Direct ubiquitin blot of Lyn-GFP immunoprecipitates. The class given is cell-based, human. To be noted: anti-GFP IP, anti-Ub blot, n = 3. As for the experimental part: Fig. 6 N-terminal glycine mutation abolishes DCAF10-dependent stability and ubiquitination. a DLD-1 Flp-In T-REx cells and Lyn KO cells expressing Lyn^WT-GFP, Lyn^G2A-GFP, or Lyn^G2P-GFP were induced for 24 h with 100 ng/mL doxycycline. Cells were treated with NMT1/2 siRNA, DCAF10 siRNA, or both (or left untreated) for 72 h. Representative WBs are shown. Filled circles represent siRNA treatment, empty circles untreated. b WB quantifications of Lyn levels normalized to vinculin. Purple: untreated with NMT1/2 siRNA; blue: treated with NMT1/2 siRNA. Mean ± s.d. with individual data points are shown (n = 3 independent biological replicates). c Schematic of ubiquitination experiments. Created in BioRender. […] Lysates have been treated with NMT1/2 RNAi for 72 h. i Quantification of in vitro ubiquitination assays. Mean ± s.d. with individual data points are shown (n = 3 independent ubiquitination assays). Volcano plots of Lyn-GFP^WT binding partners: j NMT1/2 siRNA ± doxycycline (Dox); k Control ± doxycycline; l NMT1/2 siRNA vs. control both with doxycycline. The −log10 adjusted p-value (two-sided Student’s t test with permutation-based multiple-testing correction; y-axis) is plotted against the log2 fold change (x-axis). […]
We next assessed the role of the Lyn Nt-residue for ubiquitination by performing two complementary experimental set-ups (Fig. 6c). […]

As to “GCIKSKGKDSKK [Ac-Lyn, Nt-peptide of Lyn (aa 1–10 + KKK-biotin), Nt-acetylated]”, in assay [1] (listed as Nt-acetylated Lyn), the “Binding to GST-DCAF10 (in words)” value is “bound robustly to GST-DCAF10”. Further, in assay [2], the “DCAF10 binding, Nt-Ac vs Nt-Myr (in words)” value is listed as “DCAF10 selectively recognizes the acetylated form” and the “DCAF10 binding (in words)” value is “bound to DCAF10”. Further, the “log₂ difference Ac-Lyn vs Ac-THOC7, DCAF10” value in assay [2] (n = 3) was found to be 5.83.

For “GCIKSKGKDSKK [Nt-free Lyn, Nt-peptide of Lyn (aa 1–10 + KKK-biotin), Nt-free]”, in assay [1] (listed as Lyn Nt-free), the “Binding to GST-DCAF10 (in words)” value is given as “bound only weakly”. Further, in assay [1], the “Nt-free reduction compared to Nt-Ac” value was 88.5 ± 14.7%.

Regarding “GCVQCKDKEAKK [Nt-free Fyn, Nt-peptide of Fyn, Nt-free]”, in assay [1], the “Binding to GST-DCAF10 (in words)” value was “bound only weakly” and the “Nt-free reduction compared to Nt-Ac” value stood at 82.5 ± 10.8%.

With “GSNKSKPKDAKK [Ac-Src, Nt-peptide of Src, Nt-acetylated]”, the “Lower binding in pull-downs” value in assay [1] (compared with Lyn and Fyn) is reported as ~ 30%. Besides, the “DCAF10 binding in initial pull-downs, log2” value in assay [2] (Ac-Src vs Nt-free Src) is roughly 5 log2. Moreover, the “DCAF10 binding (in words)” value in assay [2] was “bound to DCAF10”. In assay [2] (listed as Nt-acetylated Src), the “DCAF10 binding, Nt-Ac vs Nt-Myr (in words)” value was “DCAF10 selectively recognizes the acetylated form”.

“Lyn^WT-GFP: doxycycline-inducible C-terminally GFP-fused Lyn in DLD-1 Lyn KO cells”: in assay [3], the “Ubiquitination in cells (in words)” value is “ubiquitinated under both conditions, with a stronger signal in controls”.
